Experimental findings from patent US20250353841A1 (BIOGEN MA INC., priority 2022, published 2025) are described below.

pIC50: −log10 of the molar value.

In the assay the test system is mutant Huntington (HTT) protein. Briefly: HTT Mutant HTRF iPSC assay (mHTT protein lowering). It is filed as cell-based. The settings on record: human iPSC derived from a HTT patient with a poly-Q49 mutation. (In general: TR-FRET usually uses a lanthanide donor and a delayed reading to cut background.)
The pIC50 is the negative decadic logarithm of the IC50, by convention in mol/L. Read a low pIC50 as a high IC50. Turning to `COc1cc(-c2cc3c(C)nc(C)cn3n2)cn2cc([C@H]3[C@@H]4CN(C)C[C@@H]43)nc12` [Compound 542, 2-(8-methoxy-2-((1R,5S,6r)-3-methyl-3-azabicyclo[3.1.0]hexan-6-yl)imidazo[1,2-a]pyridin-6-yl)-4,6-dimethylpyrazolo[1,5-a]pyrazine], the negative-log IC50 (pIC50) was 6.00 to 7.00.

Turning to `Cn1cc2cc(-c3cc(F)c4nc(CC5CCCNC5)cn4c3)cc(F)c2n1` (stereo not shown) [Compound 14, 7-fluoro-5-(8-fluoro-2-(piperidin-3-ylmethyl)imidazo[1,2-a]pyridin-6-yl)-2-methyl-2H-indazole], the pIC50 was 6.00 to 7.00.

As for `CNCCc1cn2cc(-c3cc(F)c4nn(C)cc4c3)cc(F)c2n1` [Compound 18, 2-(8-fluoro-6-(7-fluoro-2-methyl-2H-indazol-5-yl)imidazo[1,2-a]pyridin-2-yl)-N-methylethan-1-amine], the pIC50 was 5.05 to 6.00. As for `Cc1cn2nc(-c3cc(F)c4[nH]c(C5CC6(CCNC6)C5)nc4c3)cc(C)c2n1` (stereo not shown) [Compound 420, 6-(7-fluoro-2-(6-azaspiro[3.4]octan-2-yl)-1H-benzo[d]imidazol-5-yl)-2,8-dimethylimidazo[1,2-b]pyridazine], the pIC50 was 6.00 to 7.00.

As to `CN1CCC2(c3cn4cc(-c5cc(F)c6nn(C)cc6c5)cc(F)c4n3)CC1C2` [Compound 76, 5-(8-fluoro-6-(7-fluoro-2-methyl-2H-indazol-5-yl)imidazo[1,2-a]pyridin-2-yl)-2-methyl-2-azabicyclo[3.1.1]heptane], the pIC50 was 5.05 to 6.00. For the molecule `Cc1cn2nc(-c3cc(F)c4nc([C@H]5C[C@]6(CN[C@H](C)C6)C5)cn4c3)cc(C)c2n1` (single isomer, unassigned) [Compound 178, 6-(8-fluoro-2-((2R*,4r,7R*)-7-methyl-6-azaspiro[3.4]octan-2-yl)imidazo[1,2-a]pyridin-6-yl)-2,8-dimethylimidazo[1,2-b]pyridazine], the pIC50 is over 7.00. Turning to `Cn1cc2cc(-c3cc(F)c4nc(C5CCNCC5)cn4c3)cc(C#N)c2n1` [Compound 85, 5-(8-fluoro-2-(piperidin-4-yl)imidazo[1,2-a]pyridin-6-yl)-2-methyl-2H-indazole-7-carbonitrile], the pIC50 was 6.00 to 7.00.

`Cc1cn2nc(-c3cc(F)c4nc(C5CCNC6(CC6)C5)nn4c3)cc(C)c2n1` (stereo not shown) [Compound 454, 6-(2,8-dimethylimidazo[1,2-b]pyridazin-6-yl)-8-fluoro-2-(4-azaspiro[2.5]octan-7-yl)-[1,2,4]triazolo[1,5-a]pyridine]: the pIC50 was 6.00 to 7.00. In turn, `Cc1cn2nc(-c3cc(F)c4nc(C5CCN(C6(C)CC6)CC5)cn4c3)cc(C)c2n1` [Compound 226, 6-[8-fluoro-2-[1-(1-methylcyclopropyl)-4-piperidyl]imidazo[1,2-a]pyridin-6-yl]-2,8-dimethyl-imidazo[1,2-b]pyridazine] gave a pIC50 of 6.00 to 7.00. For `Cc1cn2nc(-c3cc(F)c4nc(NC5CCNC(C)(C)C5)oc4c3)cc(C)c2n1` (stereo not shown) [Compound 485, 6-(2,8-dimethylimidazo[1,2-b]pyridazin-6-yl)-N-(2,2-dimethylpiperidin-4-yl)-4-fluorobenzo[d]oxazol-2-amine] the value was over 7.00; for `CCN1CC[C@@H](N(C)c2nc3c(F)cc(-c4cc(C)c5nc(C)cn5n4)cc3o2)C[C@@H]1C` (relative stereo) [Compound 488, rel-6-(2,8-dimethylimidazo[1,2-b]pyridazin-6-yl)-N-((2R,4S)-1-ethyl-2-methylpiperidin-4-yl)-4-fluoro-N-methylbenzo[d]oxazol-2-amine], 6.00 to 7.00. For `Cn1nc2cc(-c3cc(F)c4[nH]c(C5CCNCC5)nc4c3)cc(F)c2n1` [Compound 148, 4-fluoro-6-(7-fluoro-2-(piperidin-4-yl)-1H-benzo[d]imidazol-5-yl)-2-methyl-2H-benzo[d][1,2,3]triazole] the value was 6.00 to 7.00. To `Cc1cn2nc(-c3cc(F)c4nc(N(C)C5CCNC(C)(C)C5)oc4c3)cc(C)c2n1` (single isomer, unassigned) [Compound 508] belongs 6.00 to 7.00. On to `CNC1CC(C(=O)Nc2cn3cc(-c4cc(C)c5nc(C)cn5n4)cc(F)c3n2)C1` (stereo not shown) [Compound 249, N-(6-(2,8-dimethylimidazo[1,2-b]pyridazin-6-yl)-8-fluoroimidazo[1,2-a]pyridin-2-yl)-3-(methylamino)cyclobutane-1-carboxamide], for which the pIC50 is over 7.00. `Cc1cn2cc(-c3cc(F)c4nn(C5CCNCC5)cc4c3)cc(F)c2n1` [Compound 136, 7-fluoro-5-(8-fluoro-2-methylimidazo[1,2-a]pyridin-6-yl)-2-(piperidin-4-yl)-2H-indazole]: the pIC50 is 6.00 to 7.00. Molecule `Cc1cn2nc(-c3cc(F)c4nc(C5CCC(N(C)C)CC5)nn4c3)cc(C)c2n1` (stereo not shown) [Compound 447, 4-(6-(2,8-dimethylimidazo[1,2-b]pyridazin-6-yl)-8-fluoro-[1,2,4]triazolo[1,5-a]pyridin-2-yl)-N,N-dimethylcyclohexan-1-amine] gave a pIC50 of 6.00 to 7.00.

In the case of `Cc1cn2nc(-c3cc(F)c4[nH]c(C5CC6(CCNCC6)C5)nc4c3)cc(C)c2n1` [Compound 421, 6-(7-fluoro-2-(7-azaspiro[3.5]nonan-2-yl)-1H-benzo[d]imidazol-5-yl)-2,8-dimethylimidazo[1,2-b]pyridazine], the pIC50 is 6.00 to 7.00. `Cn1cc2cc(-c3cc(F)c4nc(C5CCCNC5)cn4c3)ccc2n1` (stereo not shown) [Compound 16, 5-(8-fluoro-2-(piperidin-3-yl)imidazo[1,2-a]pyridin-6-yl)-2-methyl-2H-indazole] had a pIC50 of 6.00 to 7.00. In turn, `Cc1cn2nc(-c3cc(F)c4nc(NC(=O)C5CCNC(C)C5)nn4c3)cc(C)c2n1` (stereo not shown) [Compound 322, N-(6-(2,8-dimethylimidazo[1,2-b]pyridazin-6-yl)-8-fluoro-[1,2,4]triazolo[1,5-a]pyridin-2-yl)-2-methylpiperidine-4-carboxamide] showed a pIC50 of 6.00 to 7.00.

`Cc1n[nH]c2ccc(-c3cc(F)c4nc(C5CCNCC5)cn4c3)cc12` [Compound 53, 5-(8-fluoro-2-(piperidin-4-yl)imidazo[1,2-a]pyridin-6-yl)-3-methyl-1H-indazole]: the pIC50 is 5.05 to 6.00. To `CNCCc1cn2cc(-c3cc(C)c4nc(C)cn4n3)cc(F)c2n1` [Compound 12, 2-(6-(2,8-dimethylimidazo[1,2-b]pyridazin-6-yl)-8-fluoroimidazo[1,2-a]pyridin-2-yl)-N-methylethan-1-amine] belongs 6.00 to 7.00; to `Cc1cn2nc(-c3cc(F)c4nn(C5CCN(C6CC6)CC5)cc4c3)cc(C(F)F)c2n1` [Compound 354, 6-(2-(1-cyclopropylpiperidin-4-yl)-7-fluoro-2H-indazol-5-yl)-8-(difluoromethyl)-2-methylimidazo[1,2-b]pyridazine], 6.00 to 7.00; to `CN1CCC(N(C)C(=O)c2cn3cc(-c4cc(F)c5nn(C)cc5c4)cc(F)c3n2)CC1` [Compound 129, 8-fluoro-6-(7-fluoro-2-methyl-indazol-5-yl)-N-methyl-N-(1-methyl-4-piperidyl)imidazo[1,2-a]pyridine-2-carboxamide], 5.05 to 6.00. The molecule `Cc1cn2cc(-c3cc(F)c4nc(C5CCN(C)CC5)cn4c3)cc(C)c2n1` [Compound 9, 8-fluoro-2′,8′-dimethyl-2-(1-methylpiperidin-4-yl)-6,6′-biimidazo[1,2-a]pyridine] gave a pIC50 of 5.05 to 6.00. For `Cc1cn2nc(-c3cc(F)c4nc(N5CCC6(CCN(C)CC6)C5)oc4c3)cc2c(C)n1` [Compound 499, 6-(4,6-dimethylpyrazolo[1,5-a]pyrazin-2-yl)-4-fluoro-2-(8-methyl-2,8-diazaspiro[4.5]decan-2-yl)benzo[d]oxazole], the pIC50 was 6.00 to 7.00. `Cc1cn2nc(-c3cc(F)c4nn(C5CCN(C)CC5)cc4c3)cc(C)c2n1` [Compound 362, 6-(7-fluoro-2-(1-methylpiperidin-4-yl)-2H-indazol-5-yl)-2,8-dimethylimidazo[1,2-b]pyridazine] had a pIC50 of over 7.00. `Cn1cc2cc(-c3cc(F)c4nc(C5CNC5)cn4c3)cc(F)c2n1` [Compound 23, 5-(2-(azetidin-3-yl)-8-fluoroimidazo[1,2-a]pyridin-6-yl)-7-fluoro-2-methyl-2H-indazole]: the pIC50 is 5.05 to 6.00. On to `Cc1cn2cc(-c3cc(F)c4oc(N(C)CCN5CCOCC5)nc4c3)cc(F)c2n1` [Compound 532, 7-fluoro-5-(8-fluoro-2-methylimidazo[1,2-a]pyridin-6-yl)-N-methyl-N-(2-morpholinoethyl)benzo [d]oxazol-2-amine], for which the pIC50 is 5.05 to 6.00. Take `Cc1cn2nc(-c3cc(F)c4nc([C@H]5[C@@H]6CN(C)C[C@@H]65)cn4c3)cc2c(C)n1` [Compound 222, 2-(8-fluoro-2-((1R,5S,6r)-3-methyl-3-azabicyclo[3.1.0]hexan-6-yl)imidazo[1,2-a]pyridin-6-yl)-4,6-dimethylpyrazolo[1,5-a]pyrazine]: the pIC50 is over 7.00. For the molecule `Cc1cc(-c2cc(F)c3nn(C4CCNCC4)nc3c2)nc2cn(C)nc12` [Compound 381, 6-(2,7-dimethyl-2H-pyrazolo[4,3-b]pyridin-5-yl)-4-fluoro-2-(piperidin-4-yl)-2H-benzo[d][1,2,3]triazole], the pIC50 is 6.00 to 7.00. Consider `Cc1cn2nc(-c3cc(F)c4nc(CC5CNC5)nn4c3)cc(C)c2n1` [Compound 440, 2-(azetidin-3-ylmethyl)-6-(2,8-dimethylimidazo[1,2-b]pyridazin-6-yl)-8-fluoro-[1,2,4]triazolo[1,5-a]pyridine], for which the pIC50 was 6.00 to 7.00. With `Cc1cn2nc(-c3cc(F)c4nc(NC(=O)C5CN(C6CCC6)C5)cn4c3)cc(C)c2n1` [Compound 263, 1-cyclobutyl-N-(6-(2,8-dimethylimidazo[1,2-b]pyridazin-6-yl)-8-fluoroimidazo[1,2-a]pyridin-2-yl)azetidine-3-carboxamide], the negative-log IC50 (pIC50) was over 7.00. Regarding `CCc1cc(-c2cc(F)c3nn(C4CCNCC4)nc3c2)nn2cc(C)nc12` [Compound 389, 6-(8-ethyl-2-methylimidazo[1,2-b]pyridazin-6-yl)-4-fluoro-2-(piperidin-4-yl)-2H-benzo[d][1,2,3]triazole], the pIC50 is 6.00 to 7.00. The molecule `Cc1cn2nc(-c3cc(F)c4nc([C@H]5C[C@@]6(CCNC6)C5)cn4c3)cc(C)c2n1` [Compound 193, 6-(8-fluoro-2-((2r,4r)-6-azaspiro[3.4]octan-2-yl)imidazo[1,2-a]pyridin-6-yl)-2,8-dimethylimidazo[1,2-b]pyridazine] showed a pIC50 of over 7.00.
